This is an account of results in US10689354B2, “Aminoazole derivative” (Teijin Pharma Limited, priority 2015, dated 2020).

Some results are limits rather than exact numbers.

The target of assay [1] is T1, androgen receptor (AR-LBD) (Rattus norvegicus, UniProt P15207).
T1 construct: 5 μL of 2×AR-LBD/Fluoromone AL Red Complex contained in the kit; purchased Invitrogen
T1 sequence (P15207 651-882 limits assumed): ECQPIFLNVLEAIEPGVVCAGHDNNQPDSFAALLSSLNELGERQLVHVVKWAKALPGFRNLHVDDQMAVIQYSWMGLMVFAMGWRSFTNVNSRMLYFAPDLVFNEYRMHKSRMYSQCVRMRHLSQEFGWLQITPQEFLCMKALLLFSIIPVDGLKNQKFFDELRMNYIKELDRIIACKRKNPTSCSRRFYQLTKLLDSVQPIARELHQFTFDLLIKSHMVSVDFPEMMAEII
Description: Evaluation of androgen receptor affinity (PolarScreen Androgen Receptor Competitor Assay Kit, Red; fluorescence polarization). The note with it: 22° C. for 5 hours, relative to binding rate of 1 μM DHT, read-out: AR affinity (pEC50) (converted). In short, it runs like this: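 FP competition: compound + AR-LBD/Fluoromone AL Red tracer complex, 22° C, 5 h. Reference 1 μM DHT binding rate; pEC50 by 4-parameter fit.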
A general note: Polarisation of emitted light reports the rotation of a fluorescent probe.

In assay [2] the target is T2, human androgen receptor (Homo sapiens, UniProt P10275).
T2 construct: expressed in transfected cells; host or cells: HEK293
T2 sequence (P10275 1-920): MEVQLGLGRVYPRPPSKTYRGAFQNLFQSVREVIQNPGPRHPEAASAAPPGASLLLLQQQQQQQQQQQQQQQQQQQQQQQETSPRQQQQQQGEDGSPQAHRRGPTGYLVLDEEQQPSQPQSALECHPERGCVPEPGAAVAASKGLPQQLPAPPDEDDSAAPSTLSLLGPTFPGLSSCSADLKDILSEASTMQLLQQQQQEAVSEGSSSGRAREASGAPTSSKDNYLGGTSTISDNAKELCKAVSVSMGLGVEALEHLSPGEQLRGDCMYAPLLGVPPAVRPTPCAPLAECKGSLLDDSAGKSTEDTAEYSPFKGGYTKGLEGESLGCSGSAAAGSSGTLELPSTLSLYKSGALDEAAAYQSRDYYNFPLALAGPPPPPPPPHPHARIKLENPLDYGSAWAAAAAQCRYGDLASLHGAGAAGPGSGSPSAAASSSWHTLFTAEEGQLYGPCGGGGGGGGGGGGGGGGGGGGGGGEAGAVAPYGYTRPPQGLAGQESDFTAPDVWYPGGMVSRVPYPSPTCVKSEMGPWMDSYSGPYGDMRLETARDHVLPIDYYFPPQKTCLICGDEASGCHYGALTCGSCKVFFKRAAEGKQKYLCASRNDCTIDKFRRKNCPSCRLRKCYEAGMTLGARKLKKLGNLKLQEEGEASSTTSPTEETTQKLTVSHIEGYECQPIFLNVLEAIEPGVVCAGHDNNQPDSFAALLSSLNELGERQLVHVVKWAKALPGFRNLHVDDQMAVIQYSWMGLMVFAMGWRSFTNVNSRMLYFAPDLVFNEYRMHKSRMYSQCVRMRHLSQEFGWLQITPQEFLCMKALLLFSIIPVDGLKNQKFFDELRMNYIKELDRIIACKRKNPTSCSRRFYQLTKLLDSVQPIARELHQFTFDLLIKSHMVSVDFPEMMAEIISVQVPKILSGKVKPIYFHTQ
Description: Reporter assay of an androgen receptor responsive sequence (luciferase, transiently transfected HEK293 cells). The note with it: 24 hours incubation, relative to activity of 100 nM DHT, read-out: AR transcriptive activity (pEC50) (converted). It is filed as cell-based. In short, it runs like this: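 Agonism scored as pEC50, fitted by 4-parameter curve against the response to 100 nM DHT, from dual-luciferase readout after 24 h compound treatment. Cells were HEK293 co-transfected (3 h) with human AR expression vector, androgen-responsive firefly reporter and Renilla control, in charcoal-stripped serum.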

For the compound `Cc1sc(N(Cc2ccc(-c3ccc(F)cn3)nc2)c2ccc(C#N)cc2)nc1C(=O)NS(C)(=O)=O` [Compound 596, 2-[4-cyano-N-[[6-(5-fluoro-2-pyridyl)-3-pyridyl]methyl]anilino]-5-methyl-N-methylsulfonyl-thiazole-4-carboxamide], the EC50 is 316 nM in assay [1] and 3980 nM in assay [2].

As to `CS(=O)(=O)NC(=O)c1csc(N(Cc2ccccc2)c2ccc(C#N)cc2)n1` [Compound 597, 2-(N-benzyl-4-cyano-anilino)-N-methylsulfonyl-thiazole-4-carboxamide], the EC50 was 398 nM in assay [1] and 1000 nM in assay [2].

For `Cc1oc(N(Cc2ccccc2)c2ccc(C#N)cc2)nc1C(=O)NS(C)(=O)=O` [Compound 598, 2-(N-benzyl-4-cyano-anilino)-5-methyl-N-methylsulfonyl-oxazole-4-carboxamide], the EC50 in assay [1] was 251 nM; in assay [2], 2000 nM.

Turning to `CCc1sc(N(Cc2ccccc2)c2ccc(C#N)cc2)nc1C(=O)NS(C)(=O)=O` [Compound 599, 2-(N-benzyl-4-cyano-anilino)-5-ethyl-N-methylsulfonyl-thiazole-4-carboxamide], the EC50 was 63.1 nM in assay [1] and 79.4 nM in assay [2].

Regarding `CC(C)c1sc(N(Cc2ccccc2)c2ccc(C#N)cc2)nc1C(=O)NS(C)(=O)=O` [Compound 600, 2-(N-benzyl-4-cyano-anilino)-5-isopropyl-N-methylsulfonyl-thiazole-4-carboxamide], the EC50 in assay [1] was 100 nM; in assay [2], over 10000 nM.

In the case of `CS(=O)(=O)NC(=O)c1nc(N(Cc2ccccc2)c2ccc(C#N)cc2)sc1Br` [Compound 603, 2-(N-benzyl-4-cyano-anilino)-5-bromo-N-methylsulfonyl-thiazole-4-carboxamide], the EC50 in assay [1] is 50.1 nM; in assay [2] it was 31.6 nM.

Consider `Cc1oc(N(Cc2ccc(OC(F)(F)F)cc2)c2ccc(C#N)cc2)nc1C(=O)NS(C)(=O)=O` [Compound 607, 2-[4-cyano-N-[[4-(trifluoromethoxy)phenyl]methyl]anilino]-5-methyl-N-methylsulfonyl-oxazole-4-carboxamide], for which the figures for the EC50 in assay [1] and in assay [2] were 39.8 nM and 5010 nM, respectively.

Consider `Cc1oc(N(Cc2ccc(Cl)c(Cl)c2)c2ccc(C#N)cc2)nc1C(=O)NS(C)(=O)=O` [Compound 608, 2-[4-cyano-N-[(3,4-dichlorophenyl)methyl]anilino]-5-methyl-N-methylsulfonyl-oxazole-4-carboxamide], for which the values for the EC50 in assay [1] and in assay [2] were 31.6 nM and 316 nM, respectively.

`CS(=O)(=O)NC(=O)c1nc(N(Cc2cc3ccccc3s2)c2ccc(C#N)cc2)sc1Br` [Compound 609, 2-[N-(benzothiophen-2-ylmethyl)-4-cyano-anilino]-5-bromo-N-methylsulfonyl-thiazole-4-carboxamide]: the results for the EC50 in assay [1] and in assay [2] were 31.6 nM and 39.8 nM, respectively.

`Cc1oc(N(Cc2ccc(F)cc2)c2ccc(C#N)cc2)nc1C(=O)NS(C)(=O)=O` [Compound 610, 2-[4-cyano-N-[(4-fluorophenyl)methyl]anilino]-5-methyl-N-methylsulfonyl-oxazole-4-carboxamide]: the EC50 is 100 nM in assay [1] and 2510 nM in assay [2].

`Cc1oc(N(Cc2cccc(Cl)c2)c2ccc(C#N)cc2)nc1C(=O)NS(C)(=O)=O` [Compound 611, 2-[N-[(3-chlorophenyl)methyl]-4-cyano-anilino]-5-methyl-N-methylsulfonyl-oxazole-4-carboxamide]: the values for the EC50 in assay [1] and in assay [2] were 79.4 nM and 2000 nM, respectively.

For the compound `Cc1oc(N(Cc2cccc(F)c2)c2ccc(C#N)cc2)nc1C(=O)NS(C)(=O)=O` [Compound 612, 2-[4-cyano-N-[(3-fluorophenyl)methyl]anilino]-5-methyl-N-methylsulfonyl-oxazole-4-carboxamide], the EC50 was 126 nM in assay [1] and 3980 nM in assay [2].

For `Cc1oc(N(Cc2cccc(OC(F)(F)F)c2)c2ccc(C#N)cc2)nc1C(=O)NS(C)(=O)=O` [Compound 613, 2-[4-cyano-N-[[3-(trifluoromethoxy)phenyl]methyl]anilino]-5-methyl-N-methylsulfonyl-oxazole-4-carboxamide], the EC50 in assay [1] is 25.1 nM; in assay [2], over 10000 nM.

`Cc1oc(N(Cc2ccccc2OC(F)F)c2ccc(C#N)cc2)nc1C(=O)NS(C)(=O)=O` [Compound 614, 2-[4-cyano-N-[[2-(difluoromethoxy)phenyl]methyl]anilino]-5-methyl-N-methylsulfonyl-oxazole-4-carboxamide]: the figures for the EC50 in assay [1] and in assay [2] were 200 nM and over 10000 nM, respectively.

For `Cc1oc(N(Cc2ccc3ncsc3c2)c2ccc(C#N)cc2)nc1C(=O)NS(C)(=O)=O` [Compound 616, 2-[N-(1,3-benzothiazol-6-ylmethyl)-4-cyano-anilino]-5-methyl-N-methylsulfonyl-oxazole-4-carboxamide], the results for the EC50 in assay [1] and in assay [2] were 251 nM and over 10000 nM, respectively.

`Cc1oc(N(Cc2cccc(C#N)c2)c2ccc(C#N)cc2)nc1C(=O)NS(C)(=O)=O` [Compound 617, 2-[4-cyano-N-[(3-cyanophenyl)methyl]anilino]-5-methyl-N-methylsulfonyl-oxazole-4-carboxamide]: the results for the EC50 in assay [1] and in assay [2] were 251 nM and over 10000 nM, respectively.

Turning to `Cc1oc(N(Cc2cc3ccccc3s2)c2ccc(C#N)cc2)nc1C(=O)NS(C)(=O)=O` [Compound 618, 2-[N-(benzothiophen-2-ylmethyl)-4-cyano-anilino]-5-methyl-N-methylsulfonyl-oxazole-4-carboxamide], the EC50 is 20 nM in assay [1] and 126 nM in assay [2].

As to `Cc1oc(N(Cc2ccccc2)c2ccc(C(F)(F)F)nc2)nc1C(=O)NS(C)(=O)=O` [Compound 620, 2-[benzyl-[6-(trifluoromethyl)-3-pyridyl]amino]-5-methyl-N-methylsulfonyl-oxazole-4-carboxamide], the EC50 in assay [1] is 631 nM; in assay [2] it was over 10000 nM.

Take `Cc1oc(N(CC2CCC(F)(F)CC2)c2ccc(C#N)cc2)nc1C(=O)NS(C)(=O)=O` [Compound 621, 2-[4-cyano-N-[(4,4-difluorocyclohexyl)methyl]anilino]-5-methyl-N-methylsulfonyl-oxazole-4-carboxamide]: the results for the EC50 in assay [1] and in assay [2] were over 2000 nM and over 10000 nM, respectively.

With `Cc1oc(N(CCC2CCCC2)c2ccc(C#N)cc2)nc1C(=O)NS(C)(=O)=O` [Compound 622, 2-[4-cyano-N-(2-cyclopentylethyl)anilino]-5-methyl-N-methylsulfonyl-oxazole-4-carboxamide], the EC50 was 79.4 nM in assay [1] and over 10000 nM in assay [2].

In the case of `CCc1oc(N(Cc2ccc(Cl)cc2)c2ccc(C#N)cc2)nc1C(=O)NS(C)(=O)=O` [Compound 623, 2-[N-[(4-chlorophenyl)methyl]-4-cyano-anilino]-5-ethyl-N-methylsulfonyl-oxazole-4-carboxamide], the EC50 in assay [1] is 31.6 nM; in assay [2], 158 nM.

For `Cc1oc(N(CCc2ccccc2)c2ccc(C#N)cc2)nc1C(=O)NS(C)(=O)=O` [Compound 625, 2-[4-cyano-N-(2-phenylethyl)anilino]-5-methyl-N-methylsulfonyl-oxazole-4-carboxamide], the EC50 in assay [1] is 251 nM; in assay [2], 3980 nM.
